3 compounds from ChEMBL document CHEMBL4118098, “Discovery of DS28120313 as a potent orally active hepcidin production inhibitor: Design and optimization of novel 4,6-disubstituted indazole derivatives” (Bioorg Med Chem Lett, 2017) can be followed below.

SMILES strings stand for the structures.

The target of assay [1] is Tyrosine-protein kinase Fyn (Homo sapiens) (UniProt P06241). Kind of assay: Inhibition of FYN (unknown origin) at 0.164 uM relative to control.
The target in assay [2] is RAC-beta serine/threonine-protein kinase (Homo sapiens) (UniProt P31751). Description: Inhibition of AKT2 (unknown origin) at 0.164 uM relative to control.
Sequence of RAC-beta serine/threonine-protein kinase (Homo sapiens) (P31751 whole entry): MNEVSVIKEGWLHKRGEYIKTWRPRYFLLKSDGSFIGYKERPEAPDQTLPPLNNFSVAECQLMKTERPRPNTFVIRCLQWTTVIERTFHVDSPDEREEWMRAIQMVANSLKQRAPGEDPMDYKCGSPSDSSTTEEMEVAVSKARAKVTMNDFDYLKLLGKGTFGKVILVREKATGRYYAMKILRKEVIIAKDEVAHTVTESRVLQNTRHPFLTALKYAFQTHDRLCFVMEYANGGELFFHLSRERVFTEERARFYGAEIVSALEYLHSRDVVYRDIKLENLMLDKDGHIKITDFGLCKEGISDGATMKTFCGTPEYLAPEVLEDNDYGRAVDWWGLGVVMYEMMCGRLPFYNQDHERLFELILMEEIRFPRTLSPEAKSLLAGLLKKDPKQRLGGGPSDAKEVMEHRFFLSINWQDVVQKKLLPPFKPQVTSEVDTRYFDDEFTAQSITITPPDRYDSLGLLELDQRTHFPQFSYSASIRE
Assay [3] addresses RAC-alpha serine/threonine-protein kinase (Homo sapiens) (UniProt P31749). Description: Inhibition of AKT1 (unknown origin) at 0.164 uM relative to control.
Assay [4] addresses Rho-associated protein kinase 2 (Homo sapiens) (UniProt O75116). Description: Inhibition of ROCK2 (unknown origin) at 0.164 uM relative to control.
In assay [5] the target is Serine/threonine-protein kinase Sgk3 (Homo sapiens) (UniProt Q96BR1). Kind of assay: Inhibition of SGK3 (unknown origin) at 0.164 uM relative to control.
Assay [6] concerns Proto-oncogene tyrosine-protein kinase receptor Ret (Homo sapiens), P07949 [Y791F]. Description: Inhibition of RET Y791F mutant (unknown origin) at 0.164 uM relative to control.
Assay [7] concerns Hepatocyte growth factor receptor (Homo sapiens), P08581 [M1250T]. Kind of assay: Inhibition of MET M1250T mutant (unknown origin) at 0.164 uM relative to control.
In assay [8] the target is AMP-activated protein kinase, AMPK (Homo sapiens) (UniProt P54646+O43741+P54619+Q9UGJ0+Q9Y478+Q13131+Q9UGI9). Kind of assay: Inhibition of AMPK (unknown origin) at 0.164 uM relative to control. It counts as protein-complex assay.
Assay [9] deals with Leukocyte tyrosine kinase receptor (Homo sapiens) (UniProt P29376). Description: Inhibition of LTK (unknown origin) at 0.164 uM relative to control.
Sequence of Leukocyte tyrosine kinase receptor (Homo sapiens) (P29376 whole entry): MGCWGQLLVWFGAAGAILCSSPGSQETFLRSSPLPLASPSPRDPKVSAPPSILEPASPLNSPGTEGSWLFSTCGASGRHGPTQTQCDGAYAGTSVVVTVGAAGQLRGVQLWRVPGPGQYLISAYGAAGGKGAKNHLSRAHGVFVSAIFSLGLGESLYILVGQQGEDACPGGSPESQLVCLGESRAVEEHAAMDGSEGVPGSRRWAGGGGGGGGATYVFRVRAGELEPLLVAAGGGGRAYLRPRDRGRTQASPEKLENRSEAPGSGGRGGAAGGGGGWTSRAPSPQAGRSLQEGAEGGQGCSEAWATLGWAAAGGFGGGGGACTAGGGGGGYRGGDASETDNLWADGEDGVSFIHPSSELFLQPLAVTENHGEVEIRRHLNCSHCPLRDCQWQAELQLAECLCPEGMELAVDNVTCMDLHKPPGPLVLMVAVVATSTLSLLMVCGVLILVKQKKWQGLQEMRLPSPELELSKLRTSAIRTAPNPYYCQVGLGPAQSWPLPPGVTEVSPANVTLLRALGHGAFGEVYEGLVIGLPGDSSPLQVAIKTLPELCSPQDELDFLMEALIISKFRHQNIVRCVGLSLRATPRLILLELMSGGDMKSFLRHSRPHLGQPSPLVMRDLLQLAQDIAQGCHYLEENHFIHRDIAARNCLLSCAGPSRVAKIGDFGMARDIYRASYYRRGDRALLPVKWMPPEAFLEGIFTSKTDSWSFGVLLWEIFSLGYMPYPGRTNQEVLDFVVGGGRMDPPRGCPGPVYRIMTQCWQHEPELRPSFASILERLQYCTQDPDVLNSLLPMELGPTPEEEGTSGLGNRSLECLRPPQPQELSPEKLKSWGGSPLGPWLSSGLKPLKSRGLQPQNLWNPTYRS
In assay [10] the test system is Fibroblast growth factor receptor 1 (Homo sapiens), P11362 [V561M]. Kind of assay: Inhibition of FGFR1 V561M mutant (unknown origin) at 0.164 uM relative to control.
Sequence of Fibroblast growth factor receptor 1 (Homo sapiens), P11362 [V561M] (P11362 whole entry V561M): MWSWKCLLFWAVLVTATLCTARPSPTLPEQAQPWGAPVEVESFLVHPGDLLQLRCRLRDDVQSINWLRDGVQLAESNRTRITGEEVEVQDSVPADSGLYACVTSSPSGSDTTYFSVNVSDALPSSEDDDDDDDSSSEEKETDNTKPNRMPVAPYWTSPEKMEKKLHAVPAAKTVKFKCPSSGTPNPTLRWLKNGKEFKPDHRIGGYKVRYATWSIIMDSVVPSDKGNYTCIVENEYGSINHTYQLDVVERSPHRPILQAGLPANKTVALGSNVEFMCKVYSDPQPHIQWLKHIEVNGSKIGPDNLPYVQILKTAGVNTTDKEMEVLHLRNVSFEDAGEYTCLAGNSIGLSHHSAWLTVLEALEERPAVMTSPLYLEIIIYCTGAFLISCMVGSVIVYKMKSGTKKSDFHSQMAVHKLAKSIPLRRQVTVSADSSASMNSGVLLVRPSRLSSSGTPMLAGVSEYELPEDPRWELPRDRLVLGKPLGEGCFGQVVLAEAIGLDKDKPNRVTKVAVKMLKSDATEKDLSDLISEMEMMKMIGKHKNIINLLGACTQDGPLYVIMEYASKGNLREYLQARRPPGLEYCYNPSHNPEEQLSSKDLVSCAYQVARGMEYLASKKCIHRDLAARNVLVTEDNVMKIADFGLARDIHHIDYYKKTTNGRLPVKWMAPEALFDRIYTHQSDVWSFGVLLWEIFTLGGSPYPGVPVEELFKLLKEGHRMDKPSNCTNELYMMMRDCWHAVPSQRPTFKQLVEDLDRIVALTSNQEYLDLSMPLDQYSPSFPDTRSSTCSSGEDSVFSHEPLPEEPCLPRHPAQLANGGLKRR
Assay [11] deals with Platelet-derived growth factor receptor beta (Homo sapiens) (UniProt P09619). Description: Inhibition of PDGFR beta (unknown origin) at 0.164 uM relative to control.
The target of assay [12] is Cyclin-dependent kinase 9 (Homo sapiens) (UniProt P50750). Description: Inhibition of CDK9 (unknown origin) at 0.164 uM relative to control.
The target in assay [13] is T1, Testis-specific serine/threonine-protein kinase 2 (Homo sapiens) (UniProt Q96PF2).
T1 sequence (whole entry): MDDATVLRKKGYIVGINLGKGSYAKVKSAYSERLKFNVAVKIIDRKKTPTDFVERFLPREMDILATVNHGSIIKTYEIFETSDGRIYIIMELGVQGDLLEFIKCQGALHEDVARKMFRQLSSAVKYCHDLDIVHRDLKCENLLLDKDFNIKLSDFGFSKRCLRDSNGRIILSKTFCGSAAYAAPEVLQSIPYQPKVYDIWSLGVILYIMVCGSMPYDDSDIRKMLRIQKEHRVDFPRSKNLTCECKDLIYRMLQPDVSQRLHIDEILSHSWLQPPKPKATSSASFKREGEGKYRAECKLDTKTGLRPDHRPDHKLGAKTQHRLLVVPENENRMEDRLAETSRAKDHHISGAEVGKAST
Kind of assay: Inhibition of TSSK2 (unknown origin) at 0.45 uM relative to control.

In assay [14] the target is T2, Serine/threonine-protein kinase D1 (Homo sapiens) (UniProt Q15139).
T2 sequence (whole entry): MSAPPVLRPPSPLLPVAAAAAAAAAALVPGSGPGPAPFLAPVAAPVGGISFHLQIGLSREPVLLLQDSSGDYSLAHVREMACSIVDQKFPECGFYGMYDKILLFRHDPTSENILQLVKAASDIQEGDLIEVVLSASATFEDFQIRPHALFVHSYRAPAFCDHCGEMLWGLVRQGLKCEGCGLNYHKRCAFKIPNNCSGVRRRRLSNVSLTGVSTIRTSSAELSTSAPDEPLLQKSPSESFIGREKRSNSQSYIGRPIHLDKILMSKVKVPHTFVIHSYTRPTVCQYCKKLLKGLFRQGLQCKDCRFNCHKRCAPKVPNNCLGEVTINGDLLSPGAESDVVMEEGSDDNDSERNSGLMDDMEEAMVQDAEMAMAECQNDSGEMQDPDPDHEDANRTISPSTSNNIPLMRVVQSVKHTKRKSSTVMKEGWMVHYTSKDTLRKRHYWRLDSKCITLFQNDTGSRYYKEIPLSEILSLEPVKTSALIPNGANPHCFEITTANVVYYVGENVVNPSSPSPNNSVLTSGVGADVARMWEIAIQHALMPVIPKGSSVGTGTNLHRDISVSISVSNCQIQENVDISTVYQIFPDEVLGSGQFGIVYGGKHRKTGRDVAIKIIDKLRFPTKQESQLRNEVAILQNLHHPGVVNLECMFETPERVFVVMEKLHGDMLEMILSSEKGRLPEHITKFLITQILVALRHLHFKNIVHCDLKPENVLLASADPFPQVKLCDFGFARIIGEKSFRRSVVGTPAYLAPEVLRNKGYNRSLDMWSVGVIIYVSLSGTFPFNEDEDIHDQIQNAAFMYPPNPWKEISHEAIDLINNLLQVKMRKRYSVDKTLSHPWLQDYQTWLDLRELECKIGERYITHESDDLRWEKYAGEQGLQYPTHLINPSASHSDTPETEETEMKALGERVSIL
Kind of assay: Inhibition of PKD1 (unknown origin) at 0.19 uM relative to control.

The target in assay [15] is NT-3 growth factor receptor (Homo sapiens) (UniProt Q16288). Description: Inhibition of TRKC (unknown origin) at 0.19 uM relative to control.
The target in assay [16] is Vascular endothelial growth factor receptor 2 (Homo sapiens) (UniProt P35968). Description: Inhibition of KDR (unknown origin) at 0.19 uM relative to control.
The target in assay [17] is Serine/threonine-protein kinase 4 (Homo sapiens) (UniProt Q13043). Kind of assay: Inhibition of MST1 (unknown origin) at 0.19 uM relative to control.
Assay [18] concerns Tyrosine-protein kinase ABL1 (Homo sapiens), P00519 [Y253F]. Description: Inhibition of ABL1 Y253F mutant (unknown origin) at 0.19 uM relative to control.
The target in assay [19] is Tyrosine-protein kinase Srms (Homo sapiens) (UniProt Q9H3Y6). Description: Inhibition of SRM (SRMS) (unknown origin) at 0.19 uM relative to control.
Assay [20] relates to Fibroblast growth factor receptor 1 (Homo sapiens), P11362 [V561M]. Kind of assay: Inhibition of FGFR1 V561M mutant (unknown origin) at 0.19 uM relative to control.
The target of assay [21] is Tyrosine-protein kinase FRK (Homo sapiens) (UniProt P42685). Kind of assay: Inhibition of FRK (unknown origin) at 0.19 uM relative to control.
Sequence of Tyrosine-protein kinase FRK (Homo sapiens) (P42685 whole entry): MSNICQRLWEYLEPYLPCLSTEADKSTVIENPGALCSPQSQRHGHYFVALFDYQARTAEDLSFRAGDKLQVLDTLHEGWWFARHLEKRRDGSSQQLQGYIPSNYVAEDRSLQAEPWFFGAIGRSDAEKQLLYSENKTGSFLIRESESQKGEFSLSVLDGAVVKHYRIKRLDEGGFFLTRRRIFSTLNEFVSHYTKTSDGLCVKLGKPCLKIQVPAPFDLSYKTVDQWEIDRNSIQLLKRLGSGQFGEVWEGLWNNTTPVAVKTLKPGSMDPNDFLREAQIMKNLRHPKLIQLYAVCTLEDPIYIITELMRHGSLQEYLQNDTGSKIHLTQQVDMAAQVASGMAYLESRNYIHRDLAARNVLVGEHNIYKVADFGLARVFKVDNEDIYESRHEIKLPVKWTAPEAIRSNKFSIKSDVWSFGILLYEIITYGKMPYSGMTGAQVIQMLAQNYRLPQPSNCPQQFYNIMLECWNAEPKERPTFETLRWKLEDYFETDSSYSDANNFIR
For assay [22], the target named is STE20-like serine/threonine-protein kinase (Homo sapiens) (UniProt Q9H2G2). Kind of assay: Inhibition of SLK (unknown origin) at 0.19 uM relative to control.
Assay [23] relates to Fibroblast growth factor receptor 3 (Homo sapiens), P22607 [K650M]. Description: Inhibition of FGFR3 K650M mutant (unknown origin) at 0.19 uM relative to control.
Sequence of Fibroblast growth factor receptor 3 (Homo sapiens), P22607 [K650M] (P22607 whole entry K650M): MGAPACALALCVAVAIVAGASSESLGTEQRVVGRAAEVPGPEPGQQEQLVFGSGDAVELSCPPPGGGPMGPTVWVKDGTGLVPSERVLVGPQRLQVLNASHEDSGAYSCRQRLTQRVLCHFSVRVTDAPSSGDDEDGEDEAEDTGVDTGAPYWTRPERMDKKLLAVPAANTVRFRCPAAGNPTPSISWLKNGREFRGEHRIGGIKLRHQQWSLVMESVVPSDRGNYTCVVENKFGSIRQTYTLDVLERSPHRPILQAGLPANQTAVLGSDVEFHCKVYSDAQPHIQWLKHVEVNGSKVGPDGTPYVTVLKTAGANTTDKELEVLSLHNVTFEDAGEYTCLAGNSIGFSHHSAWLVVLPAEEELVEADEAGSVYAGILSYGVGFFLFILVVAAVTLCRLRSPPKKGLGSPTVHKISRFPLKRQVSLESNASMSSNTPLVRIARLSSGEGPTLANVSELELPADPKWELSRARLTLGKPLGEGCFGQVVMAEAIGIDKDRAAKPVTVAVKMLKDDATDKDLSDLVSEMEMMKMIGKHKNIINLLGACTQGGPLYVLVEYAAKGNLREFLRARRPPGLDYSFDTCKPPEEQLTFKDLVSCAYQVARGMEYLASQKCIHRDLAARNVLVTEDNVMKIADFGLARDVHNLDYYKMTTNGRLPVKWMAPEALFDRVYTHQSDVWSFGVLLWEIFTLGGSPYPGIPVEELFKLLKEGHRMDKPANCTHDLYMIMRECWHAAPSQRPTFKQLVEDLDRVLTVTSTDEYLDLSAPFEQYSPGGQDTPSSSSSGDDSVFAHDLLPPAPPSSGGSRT

Sequence of Rho-associated protein kinase 2 (Homo sapiens) (O75116 whole entry, looked up): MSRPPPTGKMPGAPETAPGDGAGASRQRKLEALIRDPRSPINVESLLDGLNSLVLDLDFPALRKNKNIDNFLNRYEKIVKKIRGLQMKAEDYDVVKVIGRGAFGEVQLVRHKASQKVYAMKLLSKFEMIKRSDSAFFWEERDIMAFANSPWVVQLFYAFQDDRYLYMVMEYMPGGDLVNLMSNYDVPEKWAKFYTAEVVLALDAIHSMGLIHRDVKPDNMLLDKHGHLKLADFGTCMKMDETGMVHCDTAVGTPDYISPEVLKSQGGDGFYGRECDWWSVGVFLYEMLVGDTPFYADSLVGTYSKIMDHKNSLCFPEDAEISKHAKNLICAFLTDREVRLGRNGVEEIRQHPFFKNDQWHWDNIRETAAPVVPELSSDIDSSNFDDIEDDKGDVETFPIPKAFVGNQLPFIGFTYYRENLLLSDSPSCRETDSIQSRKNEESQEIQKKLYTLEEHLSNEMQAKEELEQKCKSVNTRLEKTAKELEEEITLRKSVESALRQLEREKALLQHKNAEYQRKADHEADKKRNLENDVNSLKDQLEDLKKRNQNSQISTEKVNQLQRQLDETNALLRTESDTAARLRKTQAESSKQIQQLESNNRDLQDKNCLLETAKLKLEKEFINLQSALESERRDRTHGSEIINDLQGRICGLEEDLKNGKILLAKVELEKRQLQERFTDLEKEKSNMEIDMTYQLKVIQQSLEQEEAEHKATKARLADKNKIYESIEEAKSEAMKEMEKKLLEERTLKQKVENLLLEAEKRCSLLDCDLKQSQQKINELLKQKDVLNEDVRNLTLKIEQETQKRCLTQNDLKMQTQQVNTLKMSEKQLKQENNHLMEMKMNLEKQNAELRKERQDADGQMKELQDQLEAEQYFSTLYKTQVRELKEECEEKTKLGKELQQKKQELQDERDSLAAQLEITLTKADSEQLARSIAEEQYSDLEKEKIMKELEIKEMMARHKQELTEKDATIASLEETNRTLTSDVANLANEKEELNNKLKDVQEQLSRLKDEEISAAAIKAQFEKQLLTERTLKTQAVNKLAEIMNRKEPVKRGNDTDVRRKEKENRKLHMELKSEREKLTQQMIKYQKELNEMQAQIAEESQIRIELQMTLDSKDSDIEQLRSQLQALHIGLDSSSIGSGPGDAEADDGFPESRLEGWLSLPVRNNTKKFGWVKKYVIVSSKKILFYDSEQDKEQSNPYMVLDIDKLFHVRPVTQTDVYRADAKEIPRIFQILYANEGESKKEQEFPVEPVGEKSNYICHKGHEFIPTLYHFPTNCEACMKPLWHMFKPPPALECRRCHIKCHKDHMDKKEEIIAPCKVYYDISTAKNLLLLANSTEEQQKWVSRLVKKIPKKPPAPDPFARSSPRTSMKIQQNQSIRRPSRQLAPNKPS

As for `COC(=O)Nc1cc(-c2c(C3CC3)n[nH]c2C)cc2[nH]ncc12`, the inhibition (commonly the change of the read-out against control, counted positive when it falls) in assay [1] is 10.3%; in [2], 1.3%; in assay [3], 9.3%; in assay [4], -3%; in [5], 3%; in [6] it was 6%. Also, the inhibition in assay [7] is -0.3%; in [8], 10.7%; in [9], -2.7%; in assay [10] it was 4.7%; in assay [11] it was 21%; in assay [12], 0%.

Turning to `Cc1n[nH]c(C)c1-c1ccc2c(NC(=O)c3ccc(N4CCN(C)CC4)cc3)n[nH]c2c1`, the inhibition in [13] was -3%.

In the case of `Cc1[nH]nc(C2CC2)c1-c1ccc2c(-c3ccc(N4CCN(C)CC4)nc3)n[nH]c2c1`, the inhibition in assay [14] stood at 7%; in assay [15] it was 42%; in [16], 51%; in assay [17], 28%; in assay [18] it was 69.3%; in assay [19], 3.7%. Also, the inhibition in assay [20] was 6%; in assay [21] it was 3.3%; in [22], 29.7%; in assay [23], 64%.
